In US20230053649A1 (Cedilla Therapeutics, Inc., priority 2021, published 2023):

Legend:
[1] = tested on: mesothelioma cell line NCI-H226; assay: 72H TEAD Proliferation Assay (Cell Titer-Glo 2.0); assay type: cell-based; conditions: Homo sapiens, CTG 2.0, cell line not given in Table 1 (NCI-H226 TEAD-responsive, NCI-H28 non-responsive counter-screen)
Procedure: 72H TEAD Proliferation Assay.
The effect of TEAD inhibition on cell proliferation was assayed using Cell Titer Glo (CTG) 2.0 to measure response in mesothelioma cell lines NCI-H226 (ATCC, #CRL-5826) and NCI-H28 (ATCC, #CRL-5820).
The 72H TEAD Proliferation assay utilizes Cell Titer-Glo 2.0 (Promega, #G9243) to measure the proliferation of cells in the presence or absence of compound. Cell Titer-Glo 2.0 determines the amount of viable cells by quantifying ATP (an indication of metabolically active cells). It utilizes the conversion of Luciferin to Oxyluciferin and a luminescent signal with the use of ATP to report the quantity of viable cells in culture. Within cells that are continually growing, ATP is being synthesized to meet their metabolic demands, meanwhile the opposite is true for cells that are dying or slowing down their proliferation and either no longer using ATP or are using less, respectively. The NF2-deficient NCI-H226 has been genetically validated as a cell line that is sensitive to TEAD inhibition. The NF2-wild type NCI-H28 has been genetically validated as a cell line that is not sensitive to TEAD inhibition and grows independently of TEAD activity.
Compounds were screened against the responsive NCI-H226 cell line to assess the compounds' ability to inhibit TEAD and cell growth. Compounds were also screened against the non-responsive NCI-H28 cell line to ascertain whether the inhibition of cell growth was due to inhibition of the target TEAD or whether the inhibition was due to off-target cytotoxicity.
Both NCI-H226 and NCI-H28 cells were grown at 37° C. with 5% CO2 using Growth Medium 1.
Anti-proliferative effect of compounds that inhibits TEAD activity measured by CTG
1) Assay ready plates (ARPs) were prepared by Echo acoustic liquid handler. For each compound, duplicate of 10-point half-log dilution series were dispensed in a 384-well microplate (Corning 3571).
3) Before use, ARPs were allowed to warm up to room temperature for 30 min.
4) ARPs were spun for 5 minutes at 1500RPM before removing the plate seals.
5) NCI-H226 or NCI-H28 cells were harvested from culture in Assay Medium 1 and the multidrop Combi reagent dispenser was used to seed cells at 500 cells per 50ul in each well of the ARPs and one Corning 3571 plate without compounds for Time 0 (TO) readout.
6) The TO plate was incubated for 2 hours at 37° C. with 5% CO2 to allow cells to settle, then the CTG Assay was performed.
7) All ARPs were incubated for 72 hours at 37° C. with 5% CO2, then the CTG Assay was performed for Time 72H (T72) readout.
8) CTG Assay: Bravo liquid handler (Agilent) was used to add 25ul of CTG 2.0 to all columns of the plate except for Column 24, which was used to subtract out the background. After CTG addition, plates were placed on shaker at 800RPM for 15 minutes at room temperature and kept in the dark. Luminescence was measured using EnVision multilabel plate reader with ultra-sensitive detection module.
9) Data Analysis: First background luminescence (no CTG wells) was subtracted from luminescence reading of all wells, then TO luminescence was subtracted from T72 luminescence. To compare anti-proliferative effect of compounds, GI50 was obtained by fitting dose response curves with nonlinear regression curve fit.

[2] = biological target: TEAD1 protein (YAP Binding Domain) (Homo sapiens, UniProt P28347); assay: biochemical
TEAD1 protein (YAP Binding Domain), sequence (P28347 167-426 limits assumed): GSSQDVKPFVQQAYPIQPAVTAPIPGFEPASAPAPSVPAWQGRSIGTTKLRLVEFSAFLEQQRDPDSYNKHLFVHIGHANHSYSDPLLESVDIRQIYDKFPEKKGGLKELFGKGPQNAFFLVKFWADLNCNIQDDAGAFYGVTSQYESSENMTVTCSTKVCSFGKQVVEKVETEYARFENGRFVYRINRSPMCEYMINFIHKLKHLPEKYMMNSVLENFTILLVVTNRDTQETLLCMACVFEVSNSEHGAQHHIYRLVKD
Procedure: Compound Displacement Assay.
A TEAD1 lipid pocket displacement assay was carried out according to the following protocol. Purified His-tagged TEAD1 protein (YAP Binding Domain) was pre-mixed with a Cy5-probe (Cy5-conjugated to a small molecule that binds in the TEAD1 lipid pocket) and Terbium-labeled anti-His antibody (Cisbio Cat 61HI2TLB). The binding of the Cy5-probe to anti-His-Tb/His-tag TEAD1 complex yielded a TR-FRET signal. […] After 60 minutes incubation at room temperature of compounds with the His-TEAD1/anti-His-Tb/Cy5-probe complex, the plate was read on a plate reader (BMG ClarioStar Cat 430-1300) using TR-FRET mode with wavelengths of 665 nm/620 nm. The potency of compounds as TEAD1 lipid pocket binders was determined by IC50 value generated using a non-linear 4 parameter curve fit.

## COC[C@H](C)NC(=O)c1cnc2c(N3CCC(C(F)(F)F)CC3)cc(OC(F)(F)F)cc2c1 [Compound I-23, (S)-N-(1-methoxypropan-2-yl)-6-(trifluoromethoxy)-8-(4-(trifluoromethyl)piperidin-1-yl)quinoline-3-carboxamide]
[1]
  GI50: 1000 to 5000 nM
[2]
  IC50: 300 to 500 nM

## C[C@H](CO)NC(=O)c1cnc2c(N3CCC4(CC3)CC4)cc(OC(F)(F)F)cc2c1 [Compound I-24, (R)-N-(1-hydroxypropan-2-yl)-8-(6-azaspiro[2.5]octan-6-yl)-6-(trifluoromethoxy)quinoline-3-carboxamide]
[1]
  GI50: > 5000 nM
[2]
  IC50: > 500 nM

## C[C@H](CO)NC(=O)c1cnc2c(N3CCC4(CC3)CC4)cc(OC3CC3)cc2c1 [Compound I-25, (R)-6-cyclopropoxy-N-(1-hydroxypropan-2-yl)-8-(6-azaspiro[2.5]octan-6-yl)quinoline-3-carboxamide]
[1]
  GI50: 1000 to 5000 nM
[2]
  IC50: > 500 nM

## COC[C@H](C)NC(=O)c1cnc2c(N3CCC(C(F)(F)F)CC3)cc(OC3CC3)cc2c1 [Compound I-26, (S)-6-cyclopropoxy-N-(1-methoxypropan-2-yl)-8-(4-(trifluoromethyl)piperidin-1-yl)quinoline-3-carboxamide]
[1]
  GI50: 500 to 1000 nM
[2]
  IC50: 300 to 500 nM

## COC[C@H](C)NC(=O)c1cnc2c(N3CCC(C(F)(F)F)CC3)cc(OC(F)F)cc2c1 [Compound I-28, (S)-6-(difluoromethoxy)-N-(1-methoxypropan-2-yl)-8-(4-(trifluoromethyl)piperidin-1-yl)quinoline-3-carboxamide]
[1]
  GI50: 500 to 1000 nM
[2]
  IC50: 150 to 300 nM

## COc1cc(N2CCC(C(F)(F)F)CC2)c2ncc(C(=O)N[C@@H](CO)C(C)C)cc2c1 [Compound I-35, (R)-N-(1-hydroxy-3-methylbutan-2-yl)-6-methoxy-8-(4-(trifluoromethyl)piperidin-1-yl) quinolone-3-carboxamide]
[1]
  GI50: 500 to 1000 nM
[2]
  IC50: 300 to 500 nM

## COc1cc(N2CCC(C(F)(F)F)CC2)c2ncc(C(=O)N[C@@H](CO)C3CC3)cc2c1 [Compound I-36]
[1]
  GI50: 500 to 1000 nM
[2]
  IC50: 150 to 300 nM

## COc1cc(N2CCC(C(F)(F)F)CC2)c2ncc(C(=O)N[C@@H](C)c3ccccn3)cc2c1 [Compound I-37, (S)-6-methoxy-N-(1-(pyridin-2-yl)ethyl)-8-(4-(trifluoromethyl)piperidin-1-yl)quinoline-3-carboxamide]
[1]
  GI50: ≤ 500 nM
[2]
  IC50: 150 to 300 nM

## COc1cc(N2CCC(C(F)(F)F)CC2)c2ncc(C(=O)NC(C)C)cc2c1 [Compound I-38, N-isopropyl-6-methoxy-8-(4-(trifluoromethyl)piperidin-1-yl)quinoline-3-carboxamide]
[1]
  GI50: ≤ 500 nM
[2]
  IC50: 150 to 300 nM

## COc1cccc([C@H](C)NC(=O)c2cnc3c(N4CCC(C(F)(F)F)CC4)cc(OC)cc3c2)c1 [Compound I-39, (S)-6-methoxy-N-(1-(3-methoxyphenyl)ethyl)-8-(4-(trifluoromethyl)piperidin-1-yl)quinoline-3-carboxamide]
[1]
  GI50: ≤ 500 nM
[2]
  IC50: > 500 nM

## COc1cc(N2CCC(C(F)(F)F)CC2)c2ncc(C(=O)N[C@@H](CO)C(C)(C)C)cc2c1 [Compound I-40, (R)-N-(1-hydroxy-3,3-dimethylbutan-2-yl)-6-methoxy-8-(4-(trifluoromethyl)piperidin-1-yl)quinoline-3-carboxamide]
[1]
  GI50: 500 to 1000 nM
[2]
  IC50: 150 to 300 nM

## COc1cc(N2CCC(C(F)(F)F)CC2)c2ncc(C(=O)N[C@@H](C)C(=O)O)cc2c1 [Compound I-41, (6-methoxy-8-(4-(trifluoromethyl)piperidin-1-yl)quinoline-3-carbonyl)-L-alanine]
[1]
  GI50: > 5000 nM
[2]
  IC50: 150 to 300 nM

## COc1cc(N2CCC(C(F)(F)F)CC2)c2ncc(C(=O)N[C@H](C)C(=O)O)cc2c1 [Compound I-42, (6-Methoxy-8-(4-(trifluoromethyl)piperidin-1-yl)quinoline-3-carbonyl)-D-alanine]
[1]
  GI50: > 5000 nM
[2]
  IC50: 150 to 300 nM

## COc1cc(N2CCC(C(F)(F)F)CC2)c2ncc(C(=O)N[C@@H](C)c3cccc(C(=O)O)c3)cc2c1 [Compound I-43, (S)-3-(1-(6-methoxy-8-(4-(trifluoromethyl)piperidin-1-yl)quinoline-3-carboxamido)ethyl)benzoic acid]
[1]
  GI50: > 5000 nM
[2]
  IC50: < 150 nM

## CC(NC(=O)c1ccc2c(OCC3CCC(F)(F)CC3)cccc2c1)c1ccccn1 (centres unmarked) [Compound I-45, 5-((4,4-difluorocyclohexyl)methoxy)-N-(1-(pyridin-2-yl)ethyl)-2-naphthamide]
[1]
  GI50: 1000 to 5000 nM
[2]
  IC50: < 150 nM

## CC(NC(=O)c1cnc2c(OCC3CCC(F)(F)CC3)cccc2c1)c1ccccn1 (centres unmarked) [Compound I-46, 8-((4,4-Difluorocyclohexyl)methoxy)-N-(1-(pyridin-2-yl)ethyl)quinoline-3-carboxamide]
[1]
  GI50: 1000 to 5000 nM
[2]
  IC50: 300 to 500 nM

## CC(CO)NC(=O)c1cnc2c(OCC3CCC(F)(F)CC3)cccc2c1 (centres unmarked) [Compound I-47, 8-((4,4-difluorocyclohexyl)methoxy)-N-(1-hydroxypropan-2-yl)quinoline-3-carboxamide]
[1]
  GI50: > 5000 nM
[2]
  IC50: > 500 nM

## Cc1cc2cc(C(=O)N[C@H](C)CO)ccc2c(N2CCC(C(F)(F)F)CC2)n1 [Compound I-48, (R)-N-(1-hydroxypropan-2-yl)-3-methyl-1-(4-(trifluoromethyl)piperidin-1-yl)isoquinoline-6-carboxamide]
[1]
  GI50: ≤ 500 nM
[2]
  IC50: 150 to 300 nM

## COc1cc2cc(C(=O)N[C@H](C)CO)ccc2c(N2CCC(C(F)(F)F)CC2)n1 [Compound I-49, (R)-N-(1-hydroxypropan-2-yl)-3-methoxy-1-(4-(trifluoromethyl)piperidin-1-yl)isoquinoline-6-carboxamide]
[1]
  GI50: ≤ 500 nM
[2]
  IC50: < 150 nM

## COC[C@H](C)NC(=O)c1ccc2c(N3CCC(C(F)(F)F)CC3)nc(OC)cc2c1 [Compound I-50, (S)-3-Methoxy-N-(1-methoxypropan-2-yl)-1-(4-(trifluoromethyl)piperidin-1-yl)isoquinoline-6-carboxamide]
[1]
  GI50: 500 to 1000 nM
[2]
  IC50: < 150 nM

## C[C@H](NC(=O)c1ccc2c(N3CCC(C(F)(F)F)CC3)nccc2c1)c1ccccn1 [Compound I-51, (S)-N-(1-(Pyridin-2-yl)ethyl)-1-(4-(trifluoromethyl)piperidin-1-yl)isoquinoline-6-carboxamide]
[1]
  GI50: ≤ 500 nM
[2]
  IC50: < 150 nM

## C[C@H](CO)NC(=O)c1ccc2c(N3CCC(C(F)(F)F)CC3)nc(C(F)(F)F)cc2c1 [Compound I-52, (R)-N-(1-hydroxypropan-2-yl)-3-(trifluoromethyl)-1-(4-(trifluoromethyl)piperidin-1-yl)isoquinoline-6-carboxamide]
[1]
  GI50: ≤ 500 nM
[2]
  IC50: < 150 nM

## O=C(O)c1ccc2c(N3CCC(C(F)(F)F)CC3)cccc2c1 [Compound I-57, 5-(4-(Trifluoromethyl)piperidin-1-yl)-2-naphthoic acid]
[1]
  GI50: > 5000 nM
[2]
  IC50: 150 to 300 nM

## C[C@H](NC(=O)c1ccc2c(N3CCC(C(F)(F)F)CC3)cccc2c1)c1ccccn1 [Compound I-58, (S)-N-(1-(pyridin-2-yl)ethyl)-5-(4-(trifluoromethyl)piperidin-1-yl)-2-naphthamide]
[1]
  GI50: ≤ 500 nM
[2]
  IC50: < 150 nM

## C[C@H](CO)NC(=O)c1ccc2c(N3CCC(C(F)(F)F)CC3)cccc2c1 [Compound I-59, (R)-N-(1-hydroxypropan-2-yl)-5-(4-(trifluoromethyl)piperidin-1-yl)-2-naphthamide]
[1]
  GI50: ≤ 500 nM
[2]
  IC50: 150 to 300 nM
